Data reported in ChEMBL document CHEMBL5113417, “Discovery of 4-(3-aminopyrrolidinyl)-3-aryl-5-(benzimidazol-2-yl)-pyridines as potent and selective SST5 agonists for the treatment of congenital hyperinsulinism” (Bioorg Med Chem Lett, 2022).
One block for each compound: values may come before it.

How the values were obtained:
[1] = target: Somatostatin receptor type 5 (Homo sapiens, UniProt P35346); test: Agonist activity at human SST5 expressed in CHO-K1 cells assessed as reduction in NKH477-induced intracellular cAMP level; assay type: functional, cell-based
Cytochrome P450 3A4 [2] = target: T1, Cytochrome P450 3A4 (Homo sapiens, UniProt P08684); test: Inhibition of CYP3A4 (unknown origin) preincubated for 30 mins; assay type: ADME
[3] = target: Somatostatin receptor type 2 (Homo sapiens, UniProt P30874); test: Agonist activity at human SST2; assay type: functional
[4] = target: Voltage-gated inwardly rectifying potassium channel KCNH2 (Homo sapiens, UniProt Q12809); test: Inhibition of hERG by patch clamp assay; assay type: toxicity
[5] = target: Somatostatin receptor type 3 (Homo sapiens, UniProt P32745); test: Agonist activity at human SST3; assay type: functional
Cytochrome P450 3A4 [6] = target: T1, Cytochrome P450 3A4; test: Inhibition of CYP3A4 (unknown origin); assay type: ADME
Cytochrome P450 2D6 [7] = target: T2, Cytochrome P450 2D6 (Homo sapiens, UniProt P10635); test: Inhibition of CYP2D6 (unknown origin) preincubated for 30 mins; assay type: ADME
Cytochrome P450 2D6 [8] = target: T2, Cytochrome P450 2D6; test: Inhibition of CYP2D6 (unknown origin); assay type: ADME
[9] = target: Somatostatin receptor type 1 (Homo sapiens, UniProt P30872); test: Agonist activity at human SST1; assay type: functional
[10] = target: Somatostatin receptor type 5 (Rattus norvegicus, UniProt P30938); test: Agonist activity at rat SST5; assay type: functional
[11] = target: Somatostatin receptor type 4 (Homo sapiens, UniProt P31391); test: Agonist activity at human SST4; assay type: functional
[12] = Metabolic stability in human liver microsomes assessed as intrinsic clearance; assay type: ADME, Microsome
[13] = Half life in Sprague-Dawley rat at 2.5 mg/kg, iv; assay type: ADME, organism-based; details: in vivo
[14] = Cmax in Sprague-Dawley rat at 10 mg/kg, po; assay type: ADME, organism-based; parameters: dose 10 mg/kg, route po; details: in vivo
[15] = AUC(0 to infinity) in Sprague-Dawley rat at 10 mg/kg, po; assay type: ADME, organism-based; parameters: time infinity, dose 10 mg/kg, route po; details: in vivo
[16] = Oral bioavailability in Sprague-Dawley rat at 10 mg/kg; assay type: ADME, organism-based; details: in vivo
[17] = Volume of distribution at steady state in Sprague-Dawley rat at 2.5 mg/kg, iv; assay type: ADME, organism-based; details: in vivo
Cytochrome P450 2D6 [18] = target: T2, Cytochrome P450 2D6; test: Time dependent inhibition of CYP2D6 (unknown origin); assay type: ADME
[19] = Metabolic stability in rat liver microsomes assessed as intrinsic clearance; assay type: ADME, Microsome
Cytochrome P450 2D6 [20] = target: T2, Cytochrome P450 2D6; test: Time dependent inhibition of CYP2D6 (unknown origin) preincubated for 30 mins; assay type: ADME
[21] = Cmax in Beagle dog at 5 mg/kg, po; assay type: ADME, organism-based, Canis lupus familiaris; parameters: dose 5 mg/kg, route po; details: in vivo
[22] = AUC(0 to infinity) in Beagle dog at 5 mg/kg, po; assay type: ADME, organism-based, Canis lupus familiaris; parameters: time infinity, dose 5 mg/kg, route po; details: in vivo
[23] = Half life in Beagle dog at 2.5 mg/kg, iv; assay type: ADME, organism-based, Canis lupus familiaris; details: in vivo
Cytochrome P450 2C9 = Cytochrome P450 2C9 (Homo sapiens, UniProt P11712); test: Inhibition of CYP2C9 (unknown origin) by fluorescent assay; assay type: ADME
[24] = Metabolic stability in dog liver microsomes assessed as half life; assay type: ADME, Canis lupus familiaris, Microsome
[25] = Oral bioavailability in Beagle dog at 5 mg/kg; assay type: ADME, organism-based, Canis lupus familiaris; details: in vivo
[26] = Metabolic stability in rat liver microsomes assessed as half life; assay type: ADME, Microsome
[27] = Metabolic stability in monkey liver microsomes assessed as intrinsic clearance; assay type: ADME, Macaca mulatta, Microsome; details: rhesus monkey
[28] = Volume of distribution at steady state in Sprague-Dawley rat at 5 mg/kg, iv; assay type: ADME, organism-based; details: in vivo
Cytochrome P450 2C19 = Cytochrome P450 2C19 (Homo sapiens, UniProt P33261); test: Inhibition of CYP2C19 (unknown origin) by fluorescent assay; assay type: ADME
[29] = Metabolic stability in human liver microsomes assessed as half life; assay type: ADME, Microsome
[30] = Metabolic stability in monkey liver microsomes assessed as half life; assay type: ADME, Macaca mulatta, Microsome; details: rhesus monkey
[31] = Half life in Sprague-Dawley rat at 5 mg/kg, iv; assay type: ADME, organism-based; details: in vivo
[32] = Volume of distribution at steady state in Beagle dog at 2.5 mg/kg, iv; assay type: ADME, organism-based, Canis lupus familiaris; details: in vivo

Sequence of Somatostatin receptor type 5 (Homo sapiens, UniProt P35346) (P35346 whole entry): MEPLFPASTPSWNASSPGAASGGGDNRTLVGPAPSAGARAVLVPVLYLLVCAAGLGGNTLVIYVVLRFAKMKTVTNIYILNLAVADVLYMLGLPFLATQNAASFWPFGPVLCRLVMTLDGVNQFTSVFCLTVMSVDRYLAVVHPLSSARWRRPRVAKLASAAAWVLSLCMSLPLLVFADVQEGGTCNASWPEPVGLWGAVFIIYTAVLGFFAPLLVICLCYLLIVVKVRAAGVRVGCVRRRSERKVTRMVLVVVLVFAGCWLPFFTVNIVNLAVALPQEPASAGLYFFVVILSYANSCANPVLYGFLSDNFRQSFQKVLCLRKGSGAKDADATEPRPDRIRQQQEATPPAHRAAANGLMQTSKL
T1 sequence (P08684 whole entry): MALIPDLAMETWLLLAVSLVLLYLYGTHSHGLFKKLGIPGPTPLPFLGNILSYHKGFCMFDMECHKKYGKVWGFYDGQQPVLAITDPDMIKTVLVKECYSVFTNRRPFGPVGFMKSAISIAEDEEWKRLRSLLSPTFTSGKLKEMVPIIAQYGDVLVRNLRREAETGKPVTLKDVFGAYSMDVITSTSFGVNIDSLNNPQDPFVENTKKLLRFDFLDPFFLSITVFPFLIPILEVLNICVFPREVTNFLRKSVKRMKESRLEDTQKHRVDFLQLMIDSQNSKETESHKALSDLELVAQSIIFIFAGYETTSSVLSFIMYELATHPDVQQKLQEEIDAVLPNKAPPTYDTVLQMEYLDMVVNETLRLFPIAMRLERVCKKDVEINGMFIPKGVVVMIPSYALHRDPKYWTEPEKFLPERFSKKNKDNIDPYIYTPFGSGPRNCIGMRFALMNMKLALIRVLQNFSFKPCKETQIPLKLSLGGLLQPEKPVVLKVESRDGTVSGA
T2 sequence (P10635 whole entry): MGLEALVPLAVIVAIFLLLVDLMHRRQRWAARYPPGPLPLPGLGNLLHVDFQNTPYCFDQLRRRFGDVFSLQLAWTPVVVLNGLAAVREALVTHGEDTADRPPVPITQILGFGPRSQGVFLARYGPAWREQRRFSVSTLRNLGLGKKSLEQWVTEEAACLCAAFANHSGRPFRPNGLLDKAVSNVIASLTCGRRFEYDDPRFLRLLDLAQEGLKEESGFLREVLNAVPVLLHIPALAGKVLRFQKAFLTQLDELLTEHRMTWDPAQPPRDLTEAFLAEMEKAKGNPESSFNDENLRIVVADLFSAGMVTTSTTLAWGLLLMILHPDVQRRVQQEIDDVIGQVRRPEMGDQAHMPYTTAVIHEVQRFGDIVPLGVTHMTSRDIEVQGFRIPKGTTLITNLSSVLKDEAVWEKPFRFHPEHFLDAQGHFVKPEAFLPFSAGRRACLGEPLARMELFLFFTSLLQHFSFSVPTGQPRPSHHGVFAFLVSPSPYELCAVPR
Sequence of Somatostatin receptor type 1 (P30872 whole entry): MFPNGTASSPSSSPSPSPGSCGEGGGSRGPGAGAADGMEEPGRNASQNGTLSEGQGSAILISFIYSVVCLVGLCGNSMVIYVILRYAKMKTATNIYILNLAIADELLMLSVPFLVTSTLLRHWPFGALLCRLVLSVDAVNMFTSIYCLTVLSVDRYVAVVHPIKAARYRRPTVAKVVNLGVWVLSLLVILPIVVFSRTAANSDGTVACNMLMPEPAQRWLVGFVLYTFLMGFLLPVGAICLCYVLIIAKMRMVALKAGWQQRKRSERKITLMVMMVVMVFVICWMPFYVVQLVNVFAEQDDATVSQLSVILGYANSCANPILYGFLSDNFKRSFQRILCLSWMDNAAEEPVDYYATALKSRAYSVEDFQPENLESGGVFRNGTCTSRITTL
Sequence of Somatostatin receptor type 2 (P30874 whole entry): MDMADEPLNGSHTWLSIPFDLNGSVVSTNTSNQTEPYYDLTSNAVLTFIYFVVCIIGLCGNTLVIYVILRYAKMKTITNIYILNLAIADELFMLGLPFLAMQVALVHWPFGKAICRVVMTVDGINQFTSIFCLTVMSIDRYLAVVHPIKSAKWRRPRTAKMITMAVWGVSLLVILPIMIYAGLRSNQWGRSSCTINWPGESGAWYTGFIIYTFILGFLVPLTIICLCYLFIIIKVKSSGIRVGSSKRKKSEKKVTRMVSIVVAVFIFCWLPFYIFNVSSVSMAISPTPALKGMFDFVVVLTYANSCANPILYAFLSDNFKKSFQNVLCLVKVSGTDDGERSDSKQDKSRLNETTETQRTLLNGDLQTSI
Sequence of Somatostatin receptor type 5 (Rattus norvegicus, UniProt P30938) (P30938 whole entry, looked up): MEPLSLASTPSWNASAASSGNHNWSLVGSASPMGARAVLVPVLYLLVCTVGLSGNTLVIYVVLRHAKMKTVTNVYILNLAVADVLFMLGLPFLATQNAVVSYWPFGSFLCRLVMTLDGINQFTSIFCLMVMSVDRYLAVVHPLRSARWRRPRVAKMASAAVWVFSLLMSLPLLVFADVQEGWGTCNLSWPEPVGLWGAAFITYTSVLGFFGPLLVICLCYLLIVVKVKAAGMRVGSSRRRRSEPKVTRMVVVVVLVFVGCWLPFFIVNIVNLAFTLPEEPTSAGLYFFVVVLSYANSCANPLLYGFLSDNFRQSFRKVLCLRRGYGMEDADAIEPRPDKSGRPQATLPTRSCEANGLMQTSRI
Sequence of Cytochrome P450 2C19 (P33261 whole entry): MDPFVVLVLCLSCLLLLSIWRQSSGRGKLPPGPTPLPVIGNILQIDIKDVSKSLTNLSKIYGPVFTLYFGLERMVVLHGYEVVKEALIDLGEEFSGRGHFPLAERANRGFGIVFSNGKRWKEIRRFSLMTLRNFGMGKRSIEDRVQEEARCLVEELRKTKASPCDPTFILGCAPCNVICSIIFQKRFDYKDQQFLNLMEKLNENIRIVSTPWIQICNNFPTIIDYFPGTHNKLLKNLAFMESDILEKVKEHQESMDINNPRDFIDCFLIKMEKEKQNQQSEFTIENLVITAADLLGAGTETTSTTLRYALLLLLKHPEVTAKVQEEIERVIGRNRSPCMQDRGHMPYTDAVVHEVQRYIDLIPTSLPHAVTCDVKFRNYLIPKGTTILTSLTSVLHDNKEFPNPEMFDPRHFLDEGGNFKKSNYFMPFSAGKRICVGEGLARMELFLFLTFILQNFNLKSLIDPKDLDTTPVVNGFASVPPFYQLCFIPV
Sequence of Somatostatin receptor type 4 (P31391 whole entry): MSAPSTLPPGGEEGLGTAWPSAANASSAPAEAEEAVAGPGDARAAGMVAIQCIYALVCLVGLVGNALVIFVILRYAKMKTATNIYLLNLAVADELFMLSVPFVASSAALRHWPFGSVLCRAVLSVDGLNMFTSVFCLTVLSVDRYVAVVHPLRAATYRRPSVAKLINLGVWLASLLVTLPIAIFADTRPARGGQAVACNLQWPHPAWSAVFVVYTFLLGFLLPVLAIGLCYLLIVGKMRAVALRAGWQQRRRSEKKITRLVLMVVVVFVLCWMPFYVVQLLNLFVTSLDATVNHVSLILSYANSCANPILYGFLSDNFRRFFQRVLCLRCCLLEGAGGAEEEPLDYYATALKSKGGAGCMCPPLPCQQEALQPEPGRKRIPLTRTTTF
Sequence of Voltage-gated inwardly rectifying potassium channel KCNH2 (Q12809 whole entry): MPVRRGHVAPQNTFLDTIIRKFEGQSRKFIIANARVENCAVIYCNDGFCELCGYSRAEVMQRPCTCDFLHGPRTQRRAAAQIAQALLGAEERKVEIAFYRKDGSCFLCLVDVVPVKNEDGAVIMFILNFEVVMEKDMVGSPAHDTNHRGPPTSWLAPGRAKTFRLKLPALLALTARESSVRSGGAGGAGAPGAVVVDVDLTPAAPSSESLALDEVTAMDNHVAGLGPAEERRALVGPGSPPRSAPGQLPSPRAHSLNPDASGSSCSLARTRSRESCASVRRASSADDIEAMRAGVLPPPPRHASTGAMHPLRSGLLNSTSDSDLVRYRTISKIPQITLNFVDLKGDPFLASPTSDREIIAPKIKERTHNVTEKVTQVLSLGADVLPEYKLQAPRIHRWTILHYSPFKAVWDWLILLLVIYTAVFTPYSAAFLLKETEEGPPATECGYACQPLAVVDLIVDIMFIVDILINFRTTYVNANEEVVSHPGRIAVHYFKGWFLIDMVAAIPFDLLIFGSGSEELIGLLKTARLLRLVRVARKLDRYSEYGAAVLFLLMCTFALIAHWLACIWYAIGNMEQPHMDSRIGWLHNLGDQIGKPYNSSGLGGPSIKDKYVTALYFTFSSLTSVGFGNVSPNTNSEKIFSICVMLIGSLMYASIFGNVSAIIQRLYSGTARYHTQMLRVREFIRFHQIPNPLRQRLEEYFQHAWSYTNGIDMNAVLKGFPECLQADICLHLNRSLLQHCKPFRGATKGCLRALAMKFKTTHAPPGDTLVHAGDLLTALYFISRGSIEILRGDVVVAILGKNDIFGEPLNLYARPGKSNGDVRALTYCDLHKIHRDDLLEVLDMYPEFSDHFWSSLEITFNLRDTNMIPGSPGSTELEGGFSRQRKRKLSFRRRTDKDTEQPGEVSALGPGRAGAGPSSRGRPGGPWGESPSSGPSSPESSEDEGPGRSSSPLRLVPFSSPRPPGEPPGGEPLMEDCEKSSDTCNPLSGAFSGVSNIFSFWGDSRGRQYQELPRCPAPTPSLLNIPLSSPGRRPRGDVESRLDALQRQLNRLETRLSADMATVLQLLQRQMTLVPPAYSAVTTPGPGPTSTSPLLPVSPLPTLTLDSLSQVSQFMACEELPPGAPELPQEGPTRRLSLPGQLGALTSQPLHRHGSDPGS
Sequence of Somatostatin receptor type 3 (P32745 whole entry): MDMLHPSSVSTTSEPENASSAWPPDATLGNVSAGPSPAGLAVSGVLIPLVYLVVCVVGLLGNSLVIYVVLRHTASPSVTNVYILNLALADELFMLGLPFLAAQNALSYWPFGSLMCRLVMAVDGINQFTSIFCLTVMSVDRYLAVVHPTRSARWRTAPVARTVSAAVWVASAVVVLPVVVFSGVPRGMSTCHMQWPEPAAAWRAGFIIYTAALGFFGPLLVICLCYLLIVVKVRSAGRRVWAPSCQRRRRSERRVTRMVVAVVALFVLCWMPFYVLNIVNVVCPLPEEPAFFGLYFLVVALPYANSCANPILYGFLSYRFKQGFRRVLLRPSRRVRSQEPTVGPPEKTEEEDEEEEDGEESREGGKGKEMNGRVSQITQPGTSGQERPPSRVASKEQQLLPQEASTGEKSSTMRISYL

SMILES: NCC1CN(c2c(-c3cccc(Cl)c3)cncc2-c2nc3c(F)cc(F)cc3[nH]2)C1
EC50 [1]: 0.36 nM

SMILES: Cc1ccc(F)c2[nH]c(-c3cncc(-c4cc(F)cc(C#N)c4)c3N3CC[C@H](N)C3)nc12
IC50 (Cytochrome P450 3A4 [2]): > 10000 nM
EC50 ([3]; read-out: pEC50 (converted)): 251 nM
IC50 [4]: 280 nM
EC50 [5]: 10 nM
IC50 (Cytochrome P450 3A4 [6]): > 10000 nM
IC50 (Cytochrome P450 2D6 [7]): 4000 nM
IC50 (Cytochrome P450 2D6 [8]): 5300 nM
EC50 [9]: > 1000 nM
pEC50 [9]: < 6
EC50 [1]: 0.23 nM
EC50 [10]: 0.31 nM
EC50 [11]: 3.98 nM

CLH [12]: 10 mL/min/g
t1/2 [13]: 7.1 min
Cmax [14]: 181 ng/mL
AUC(0-inf) [15]: 2480 ng·h/mL
bioavailability [16]: 74%
Vdss [17]: 22 L/kg
IC50 (Cytochrome P450 2D6 [18]): 400 nM
CLH [19]: 14 mL/min/g
IC50 (Cytochrome P450 2D6 [20]): 90 nM
SMILES: N[C@H]1CCN(c2c(-c3cc(F)cc(Cl)c3)cncc2-c2nc3c(F)cccc3[nH]2)C1

SMILES: N#Cc1cc(-c2cncc(-c3nc4c(F)cccc4[nH]3)c2N2CC[C@H](N)C2)ccc1F
EC50 [1]: 0.62 nM

SMILES: CC1(N)CCN(c2c(-c3cccc(C#N)c3)cncc2-c2nc3c(F)cccc3[nH]2)C1 (stereo not drawn)
EC50 [1]: 0.071 nM

SMILES: Cc1cccc(-c2cncc(-c3nc4c(F)cc(F)cc4[nH]3)c2N2CC(CN)C2)c1
EC50 [1]: 2.3 nM

EC50 ([3]; read-out: EC50): > 1000 nM
SMILES: Cc1cc(F)cc(-c2cncc(-c3nc4cc(F)ccc4[nH]3)c2N2CC(CN)C2)c1

SMILES: N#Cc1cccc(-c2cncc(-c3nc4c(F)cc(F)cc4[nH]3)c2N2CC(CN)C2)c1
EC50 [1]: 2.6 nM

SMILES: Cc1cc(F)cc(-c2cncc(-c3nc4c(F)cc(F)cc4[nH]3)c2N2CC(C)(CN)C2)c1
EC50 [1]: 2.3 nM

SMILES: Cc1cc(F)cc(-c2cncc(-c3nc4c(F)cc(F)cc4[nH]3)c2N2CC(CN)C2)c1
EC50 [1]: 2.2 nM

EC50 [1]: 6.1 nM
SMILES: NCC1CN(c2c(-c3cccc(F)c3)cncc2-c2nc3c(F)cc(F)cc3[nH]2)C1

SMILES: Cc1cc(F)cc(-c2cncc(-c3nc4c(C#N)cccc4[nH]3)c2N2CC(CN)C2)c1
EC50 [1]: 19 nM

SMILES: CC(N)C1CN(c2c(-c3cc(F)cc(C(F)(F)F)c3)cncc2-c2nc3c(F)cc(F)cc3[nH]2)C1 (stereo not drawn)
EC50 [1]: 0.27 nM

SMILES: N#Cc1ccc(-c2cncc(-c3nc4c(F)cccc4[nH]3)c2N2CC[C@H](N)C2)cc1F
EC50 [1]: 45 nM

SMILES: Cc1cc(F)cc(-c2cncc(-c3nc4c(Cl)cccc4[nH]3)c2N2CC(CN)C2)c1
EC50 [1]: 1.2 nM

IC50 (Cytochrome P450 3A4 [2]): > 10000 nM
Cmax [21]: 324 ng/mL
CLH [12]: 2 mL/min/g
AUC(0-inf) [22]: 4660 ng·h/mL
Cmax [14]: 78 ng/mL
AUC(0-inf) [15]: 951 ng·h/mL
bioavailability [16]: 33%
t1/2 [23]: 16.9 min
IC50 (Cytochrome P450 3A4 [6]): > 10000 nM
IC50 (Cytochrome P450 2C9): > 10000 nM
IC50 (Cytochrome P450 2D6 [7]): 7500 nM
bioavailability [25]: 55%
half-life [26]: > 693 min
IC50 (Cytochrome P450 2D6 [8]): 10000 nM
CLH [27]: 94.3 mL/min/g
Vdss [28]: 17 L/kg
CLH [19]: 2 mL/min/g
IC50 (Cytochrome P450 2C19): > 10000 nM
half-life [29]: > 693 min
Vdss [32]: 12.9 L/kg
SMILES: Cc1cccc2[nH]c(-c3cncc(-c4cc(F)cc(C#N)c4)c3N3CC[C@H](N)C3)nc12

SMILES: N#Cc1cccc(-c2cncc(-c3nc4c(F)cccc4[nH]3)c2N2CCC(N)(CO)C2)c1 (stereo not drawn)
EC50 [1]: 1 nM

SMILES: Cc1c(F)ccc2[nH]c(-c3cncc(-c4cc(F)cc(C#N)c4)c3N3CC[C@H](N)C3)nc12
EC50 [1]: 0.65 nM

SMILES: NCC1CN(c2c(-c3nc4c(F)cc(F)cc4[nH]3)cncc2-c2ccccc2F)C1
EC50 [1]: 400 nM

SMILES: N#Cc1cccc(-c2cncc(-c3nc4c(F)cccc4[nH]3)c2N2CC[C@H](N)C2)c1
EC50 [1]: 0.55 nM

SMILES: Cc1cc(F)cc2[nH]c(-c3cncc(-c4cc(F)cc(C#N)c4)c3N3CC[C@H](N)C3)nc12
EC50 [1]: 2.1 nM

SMILES: Cc1cccc2c1nc(-c1cncc(-c3cc(F)cc(C#N)c3)c1N1CC[C@H](N)C1)n2C
EC50 [1]: 4.2 nM

SMILES: C[C@]1(N)CCN(c2c(-c3cccc(C#N)c3)cncc2-c2nc3c(F)cccc3[nH]2)C1
EC50 [1]: 0.047 nM

SMILES: N#Cc1cccc(-c2cncc(-c3nc4c(F)cccc4[nH]3)c2N2CC(N)C(C(F)(F)F)C2)c1 (mixture of isomers)
EC50 [1]: 42 nM

SMILES: N#Cc1cccc(-c2cncc(-c3nc4c(F)cccc4[nH]3)c2N2C[C@@H](N)[C@H](O)C2)c1 (racemic)
EC50 [1]: 46 nM
